SMILES strings stand for the structures. The source made the active and inactive calls. The rule behind the calls is not given here.

Data set [1] can be described thus: cells. Particulars: Rattus norvegicus.
Description: Induction of rat oligodendrocyte precursor cells differentiation assessed as myelin basic protein expression by immunostaining based assay
For another data set, the target named is CYP2D6 (Homo sapiens, UniProt P10635). The experiment in a line: Inhibition of CYP2D6 in human liver microsomes at 10 uM. Format: ADME. Background: Microsomes from liver hold many membrane-bound enzymes, among them those of drug oxidation.
Data set [2] is described as follows: Brain to plasma permeability coefficient, Kp of the compound in C57BL/6 mouse after 0.5 hrs. Format: ADME.
The nature of data set [3]: Plasma clearance in C57BL/6 mouse at 1 mg/kg, iv administered as a single dose. Format: ADME, organism-based.
Data set [4] is described as follows: Volume of distribution in C57BL/6 mouse at 1 mg/kg, iv administered as a single dose. Format: ADME, organism-based. Particulars: in vivo.
Data set [5] in a line: in vitro. Particulars: human.
Description: Metabolic stability in human assessed as parent compound remaining after 30 mins
The nature of data set [6]: cells. Particulars: Rattus norvegicus. This is another data set of the same source.
Description: Induction of rat oligodendrocyte precursor cells differentiation assessed as myelin basic protein expression by immunostaining based assay relative to control
The next data set has as its target Cytochrome P450 3A4 (Homo sapiens, UniProt P08684). The experiment in a line: Inhibition of CYP3A4 in human liver microsomes. Format: ADME.
A short description of data set [7]: Elimination half life in C57BL/6 mouse at 10 mg/kg, po administered as a single dose. Format: ADME, organism-based. Particulars: in vivo, read-out: beta t1/2 (converted).
The next data set is described as follows: physchem. Particulars: buffer, pH 7.4.
Data set [8] is described as follows: AUClast in C57BL/6 mouse at 10 mg/kg, po administered as a single dose. Particulars: in vivo. Format: ADME, organism-based. The arrangement: dose 10 mg/kg, route oral, time 0 - last.
A short description of data set [9]: Oral bioavailability in C57BL/6 mouse at 10 mg/kg administered as a single dose. Format: ADME, organism-based. Particulars: in vivo.
The test system of the next data set is Mus musculus. Kind of data set: Immunosuppressive activity in MOG (35 to 55 residues)/pertussis toxin-induced experimental autoimmune encephalomyelitis C57BL/6 mouse model assessed as reduction in development of clinical symptoms at 50 mg/kg, po administered once a day starting from day 3 post immunization upto 17 days. Format: functional, organism-based.
The next data set deals with hERG (KCNH2) (Homo sapiens, UniProt Q12809). Kind of data set: in vitro.
Data set [10] is described as follows: in vitro. Particulars: mouse.
Description: Metabolic stability in mouse assessed as parent compound remaining after 30 mins
The next data set concerns the target Cytochrome P450 2C9 (Homo sapiens, UniProt P11712). Kind of data set: Inhibition of CYP2C9 in human liver microsomes. Format: ADME.
The nature of data set [11]: Brain to plasma permeability coefficient, Kp of the compound in C57BL/6 mouse after 4 hrs. Format: ADME.
Data set [12] is described as follows: Cmax in C57BL/6 mouse at 10 mg/kg, po administered as a single dose. Format: ADME, organism-based. The arrangement: dose 10 mg/kg, route oral. Particulars: in vivo.

Sequence of CYP2D6 (P10635 whole entry): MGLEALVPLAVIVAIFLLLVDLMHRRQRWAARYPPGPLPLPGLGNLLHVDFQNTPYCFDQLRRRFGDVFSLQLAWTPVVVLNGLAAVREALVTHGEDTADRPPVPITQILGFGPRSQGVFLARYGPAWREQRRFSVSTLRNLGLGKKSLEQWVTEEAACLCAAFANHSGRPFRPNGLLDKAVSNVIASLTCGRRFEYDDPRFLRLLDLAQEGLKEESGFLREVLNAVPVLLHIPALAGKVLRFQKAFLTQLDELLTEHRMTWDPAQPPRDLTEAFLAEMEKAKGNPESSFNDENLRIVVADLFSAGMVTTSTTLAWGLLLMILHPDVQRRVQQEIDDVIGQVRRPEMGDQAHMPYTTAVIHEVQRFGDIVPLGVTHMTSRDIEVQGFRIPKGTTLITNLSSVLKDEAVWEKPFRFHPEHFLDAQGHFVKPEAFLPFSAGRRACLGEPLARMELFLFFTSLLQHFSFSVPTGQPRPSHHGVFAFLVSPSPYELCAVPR
Sequence of hERG (KCNH2) (Q12809 whole entry): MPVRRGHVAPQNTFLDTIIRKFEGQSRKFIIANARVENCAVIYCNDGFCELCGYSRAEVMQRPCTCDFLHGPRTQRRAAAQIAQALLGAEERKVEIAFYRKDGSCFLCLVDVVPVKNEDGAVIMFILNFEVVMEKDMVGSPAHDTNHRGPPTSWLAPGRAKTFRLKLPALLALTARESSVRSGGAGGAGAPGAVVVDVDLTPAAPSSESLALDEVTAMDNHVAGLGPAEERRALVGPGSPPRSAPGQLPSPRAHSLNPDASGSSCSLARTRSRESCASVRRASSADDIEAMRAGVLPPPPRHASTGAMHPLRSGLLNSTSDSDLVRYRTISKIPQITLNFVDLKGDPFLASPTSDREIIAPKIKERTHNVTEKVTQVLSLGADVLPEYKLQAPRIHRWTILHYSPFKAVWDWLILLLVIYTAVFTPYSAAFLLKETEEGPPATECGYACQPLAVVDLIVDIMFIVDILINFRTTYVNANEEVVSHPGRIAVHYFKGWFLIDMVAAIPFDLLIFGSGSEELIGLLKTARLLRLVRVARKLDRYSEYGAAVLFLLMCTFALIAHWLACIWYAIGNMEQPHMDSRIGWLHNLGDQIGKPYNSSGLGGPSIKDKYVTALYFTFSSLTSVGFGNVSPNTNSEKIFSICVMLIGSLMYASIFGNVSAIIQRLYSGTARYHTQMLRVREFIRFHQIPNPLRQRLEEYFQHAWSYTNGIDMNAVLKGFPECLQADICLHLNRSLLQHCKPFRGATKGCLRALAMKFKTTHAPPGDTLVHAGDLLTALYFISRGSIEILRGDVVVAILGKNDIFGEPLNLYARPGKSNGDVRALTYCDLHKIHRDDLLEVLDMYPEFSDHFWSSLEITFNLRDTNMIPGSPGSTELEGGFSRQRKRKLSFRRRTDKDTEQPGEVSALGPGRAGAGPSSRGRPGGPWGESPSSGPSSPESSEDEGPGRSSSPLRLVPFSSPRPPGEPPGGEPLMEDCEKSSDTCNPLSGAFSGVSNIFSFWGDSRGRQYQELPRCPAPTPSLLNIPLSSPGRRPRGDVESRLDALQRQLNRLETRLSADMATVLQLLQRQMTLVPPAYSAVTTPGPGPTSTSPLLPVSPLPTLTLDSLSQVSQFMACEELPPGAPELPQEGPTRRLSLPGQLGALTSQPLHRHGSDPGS
Sequence of Cytochrome P450 2C9 (P11712 whole entry): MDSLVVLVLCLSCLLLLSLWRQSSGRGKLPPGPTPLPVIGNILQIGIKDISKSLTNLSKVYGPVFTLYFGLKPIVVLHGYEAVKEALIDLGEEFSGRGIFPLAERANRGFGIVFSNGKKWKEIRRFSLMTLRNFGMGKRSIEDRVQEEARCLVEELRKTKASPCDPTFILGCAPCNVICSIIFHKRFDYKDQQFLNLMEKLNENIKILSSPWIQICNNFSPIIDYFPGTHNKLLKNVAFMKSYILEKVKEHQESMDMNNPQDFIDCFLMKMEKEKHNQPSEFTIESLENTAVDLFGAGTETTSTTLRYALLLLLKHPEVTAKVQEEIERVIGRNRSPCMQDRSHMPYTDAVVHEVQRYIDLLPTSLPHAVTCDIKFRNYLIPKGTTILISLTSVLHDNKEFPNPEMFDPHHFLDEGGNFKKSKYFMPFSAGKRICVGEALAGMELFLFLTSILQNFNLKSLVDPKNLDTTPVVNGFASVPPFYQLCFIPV
Sequence of Cytochrome P450 3A4 (P08684 whole entry): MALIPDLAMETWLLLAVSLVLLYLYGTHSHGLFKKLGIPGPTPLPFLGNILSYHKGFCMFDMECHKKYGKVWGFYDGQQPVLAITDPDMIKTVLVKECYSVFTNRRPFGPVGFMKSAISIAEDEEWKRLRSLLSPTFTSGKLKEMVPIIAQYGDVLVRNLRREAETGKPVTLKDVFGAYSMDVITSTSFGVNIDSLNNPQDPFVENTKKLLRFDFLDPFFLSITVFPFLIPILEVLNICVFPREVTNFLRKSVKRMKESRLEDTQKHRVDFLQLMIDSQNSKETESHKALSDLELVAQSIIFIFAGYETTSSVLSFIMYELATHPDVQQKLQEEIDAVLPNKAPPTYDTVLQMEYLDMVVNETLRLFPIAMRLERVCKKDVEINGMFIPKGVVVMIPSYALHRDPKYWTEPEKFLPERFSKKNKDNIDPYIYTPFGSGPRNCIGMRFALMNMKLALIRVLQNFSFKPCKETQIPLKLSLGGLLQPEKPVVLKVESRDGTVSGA
Description for hERG (KCNH2): Inhibition of human ERG at 10 uM
Description for physchem: Lipophilicity, log D of the compound at pH 7.4

With `CC(C)c1ccc2c(c1)C(=O)C1(CCN(CC3CCCC3)CC1)N2`, in “cells [1]”, the response was half-maximal at 25 nM (EC50).

With `CC(C)CN1CCC2(CC1)Nc1ccc(C(C)C)cc1C2=O`, a half-maximal response in the data set “cells [1]” (EC50) required 330 nM. On the same count and under the same terms, then `O=C1c2ccccc2NC12CCN(CC1CCOCC1)CC2`, with 550 nM. Still for that read-out and setting: the value for `CCCN1CCC2(CC1)Nc1ccc(C(C)C)cc1C2=O` was 550 nM.

In the data set “cells [1]”, `COC1c2cc(C(F)(F)F)ccc2NC12CCN(CC1CCOCC1)CC2` (stereo unspecified) yielded an EC50 of 5.7 nM. Still for that read-out and setting: the value for `CC(C)c1ccc2c(c1)C(=O)C1(CCN(CC3CCOCC3)CC1)N2` was 4.6 nM.

Molecule `CC(C)c1ccc2c(c1)C(=O)C1(CCN(CC3CCC3)CC1)N2` gave an EC50 in “cells [1]” of 16 nM.

In the data set “cells [1]”, `O=C1c2cc(O)ccc2NC12CCN(CC1CCOCC1)CC2` displayed an EC50 of more than 10000 nM. Still for that read-out and setting: then `OC1c2cc(C(F)(F)F)ccc2NC12CCN(CC1CCOCC1)CC2` (stereo unspecified), with 520 nM; and `O=C1c2cc(Cl)ccc2NC12CCN(CC1CCOCC1)CC2`, with 320 nM; and `CC(C)c1ccc2c(c1)C(=O)C1(CCN(CC3CCCCC3)CC1)N2`, with 37 nM. Still for that read-out and setting: then `CC(C)c1ccc2c(c1)C(=O)C1(CCN(S(=O)(=O)C3CC3)CC1)N2`, with more than 10000 nM; and `CC(C)c1ccc2c(c1)C(=O)C1(CCN(C(=O)C3CC3)CC1)N2`, with more than 10000 nM; and `CC(C)Oc1ccc2c(c1)C(=O)C1(CCN(CC3CCOCC3)CC1)N2`, with 59 nM. Still for that read-out and setting: the value for `COc1ccc2c(c1)C(=O)C1(CCN(CC3CCOCC3)CC1)N2` was 970 nM; that for `CN1c2ccc(C(F)(F)F)cc2CC12CCN(CC1CCOCC1)CC2` was 7100 nM; that for `FC(F)(F)c1ccc2c(c1)CC1(CCN(CC3CCOCC3)CC1)N2` was 240 nM. Molecule `CC(C)c1ccc2c(c1)C(=O)C1(CCN(CCc3ccccc3)CC1)N2` came in with an EC50 in “cells [1]” of 540 nM. Against the preceding molecule, the EC50 is about 2.2-fold higher. On to `O=C1c2cc(C(F)(F)F)ccc2NC12CCN(CC1CCOCC1)CC2`, for which the figures for the inhibition at 10 µM against CYP2D6 and on hERG (KCNH2) were 70% and 94%, respectively. For the same molecule, the Kp at 0.5 h in data set [2] was 25.5. Moreover, in [3], the clearance was found to be 79.2 mL/min/kg. Further, the Vd in [4] stood at 31.5 L/kg. Further, the amount remaining at 0.5 h was 35% in the data set “in vitro [5]” and 68% in “in vitro [10]”. Further, in the data set “cells [6]”, the Emax was 240%. Besides, the IC50 on Cytochrome P450 3A4 and at Cytochrome P450 2C9 was more than 18000 nM in each case. The half-life in data set [7] was 6.4 h. For the same molecule, the EC50 in the data set “cells [1]” worked out at 3.2 nM. The molecule also displayed a logD in the data set “physchem” of 2.8. In addition, the AUC(0-t) in data set [8] was 1780 ng·h/mL. Also, the bioavailability in data set [9] came to 116%. Moreover, the outcome with Mus musculus was Active. This molecule also registered a Kp at 4 h in [11] of 50.9. Besides, in data set [12], the Cmax amounted to 308 ng/mL. In turn, `O=C1c2cc(C(F)(F)F)ccc2CC12CCN(CC1CCOCC1)CC2` returned an EC50 in “cells [1]” of 110 nM. The molecule `CN1c2ccc(C(F)(F)F)cc2C(=O)C12CCN(CC1CCOCC1)CC2` displayed an EC50 in “cells [1]” of 9.3 nM. Same read-out and setting: then `CC(C)(C)c1ccc2c(c1)C(=O)C1(CCN(CC3CCOCC3)CC1)N2`, with 9.9 nM; and `O=C1c2cc(C(F)(F)F)ccc2OC12CCN(CC1CCOCC1)CC2`, with 480 nM; and `CC(C)c1ccc2c(c1)C(=O)C1(CCN(Cc3ccccc3)CC1)N2`, with 330 nM.

For orientation: EC50 means the concentration that produces a half-maximal response. Low values mean an effect from little substance, high ones a need for much substance. By inhibition is commonly meant how much of the control response was suppressed. The low end stands for little suppression, the high end for strong suppression. In general, Kp refers to the ratio of the level in a tissue or fluid to that in plasma or blood. Broadly, the clearance is the rate of elimination divided by the concentration. A lower clearance goes with inefficient removal. The term Vd denotes the apparent volume that relates the amount in the body to the concentration in plasma or blood. Low values mean little distribution into tissue, high ones wide distribution into tissue. By amount remaining is commonly meant what is left of the initial amount, in per cent. Broadly, the Emax is the maximal effect, on the per cent scale that the assay sets. As a reminder, the IC50 is the midpoint of a concentration-inhibition curve. A low value points to greater potency. In general, logD refers to lipophilicity at a set pH, counting ionised and neutral species. The AUC(0-t) is exposure summed from dosing to a finite time, without extrapolation to infinity. A high value points to high exposure. For orientation: Cmax means the maximum level reached in the sampled fluid or tissue.

Source of the values: ChEMBL document CHEMBL4627279, “Discovery and structure-activity relationships of spiroindolines as novel inducers of oligodendrocyte progenitor cell differentiation” (Bioorg Med Chem, 2020).
